Laboratory results reported in US6376497B1, “Antifungal azole derivatives having a fluorinated vinyl group and process for preparing same” (Korea Research Institute of Chemical Technology, priority 1999, dated 2002).
Where two headings read alike, the source gives them in different places.

Key:
[1] = tested on: Candida tropicalis A. 13803; assay: In vitro antifungal activity, microbroth dilution MIC; type: cell-based; conditions: Candida tropicalis, 4 to 48 hours
How it was run: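 Broth microdilution adapted from NCCLS M27, in RPMI-1640 with 0.165 M MOPS, pH 7.0. Yeast or mould inoculum at 2×10^3 CFU/ml was mixed 1:1 with DMSO-derived compound solutions (200 to 0.10 μg/ml before mixing) and incubated at 35 °C for 4 to 48 h. MIC was the concentration showing no growth.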

mouse = conditions: oral; cited from earlier work
[2] = A.13803, RPMI-1640, 35° C., no growth observed, read-out: Minimal inhibitory concentration(MIC), C. tropicalis A. 13803
[3] = C. tropicalis A. 13803, RPMI-1640, 35° C., read-out: Minimal inhibitory concentration (MIC)

## OC(Cn1cncn1)(Cn1cncn1)c1ccc(F)cc1F [fluconazole, reference compound]
[1]; [2]
  MIC: > 100 mg/L
[1]; [3]
  MIC: > 100 mg/L

## CCC(C)n1ncn(-c2ccc(N3CCN(c4ccc(OCC5COC(Cn6cncn6)(c6ccc(Cl)cc6Cl)O5)cc4)CC3)cc2)c1=O (centres unmarked) [itraconazole, reference compound]
[1]; [2]
  MIC: > 100 mg/L
[1]; [3]
  MIC: > 100 mg/L
mouse
  LD50: 320 mg/kg
